Results: patent publication US20240228411A1, “Functionalization of Lightly Branched Olefin Oligomers” (ExxonMobil Chemical Patents Inc., priority 2021, published 2024)
Where a name gives a salt, the structure may show the parent alone.

Assays:
Type in all cases: physicochemical
[1] = Critical micelle concentration in water, Kruss K100 tensiometer
Procedure: Critical micelle concentrations in water were measured using an A Kruss Laboratory K100 tensiometer. CMC values were determined using the K100 instrument's fully automated measurement method, as described further in the K100 instrument's operating manual.

Wetting time, skein test = settings: average of three measurements; for Wetting time (1 g/L): 1 g/L surfactant; for Wetting time (2 g/L): 2 g/L surfactant
Procedure: Wetting time was measured by heating an aqueous mixture of the surfactant in an oven for 15-20 minutes at 50-60° C. and homogenizing regularly. 1+/−0.1 g or 2+/−0.1 g of the surfactant was weighed into a 1 L volumetric flask, and distilled water was added by portions of 200-300 mL and agitating regularly. After the resulting foam disappeared, the volume was adjusted to the 1 liter level. Skein yams were removed from their packaging and hung for a period of time before measurement. The surfactant solution was poured into a graduated cylinder (1 L), and foam was removed with a small nitrogen or air flow. The skein was folded one time. A hook was fastened with its anchor at one end of the folded skein, and at the opposite end, the skein was cut through. The cut skein was then compacted. The skein was held with the anchor and the weight above the 1-liter graduated cylinder containing the surfactant solution. A stopwatch was activated just as the skein was released into the surfactant solution. The stopwatch was stopped once the skein started to sink. The average of three measurements using fresh surfactant solution and a new skein each time is reported. Wetting results are specified in Table 5 below.

[2] = Solubility in water at 25° C., visual observation; settings: 2-3 hours magnetic stirring
Procedure: Solubility measurements were conducted in water at 25° C. Solubility was determined through visual observation after 2-3 hours of magnetic stirring of surfactant solutions having variable concentrations.

[3] = Calcium tolerance (hard water tolerance), surfactant remaining in filtrate by HPLC-ELSD; settings: 25° C., 450 ppm surfactant, 420 ppm cations (3:1 Ca2+:Mg2+), overnight
Procedure: Calcium tolerance was measured at 25° C. using the following procedure. A surfactant solution containing 450 ppm of alcohol sulfate surfactant and 420 ppm cations (3:1 Ca^2+:Mg^2+) was prepared and allowed to stand overnight. Crystals formed during this time. The supernatant liquid was removed and passed through a 0.22 μm filter to provide a filtrate. The filtrate was then analyzed for surfactant residue. Analysis of the surfactant and salt residue was performed using an Agilent 1100 HPLC combined with SEDEX 75 evaporative light scattering detector (ELSD) using the run conditions specified in Table 4 below. Peak height was utilized to analyze surfactant concentration. Some samples were repeated in triplicate. Calcium tolerance results are specified in Table 5 below.

| CMC [1] | Wetting time (1 g/L) (Wetting time, skein test) | Wetting time (2 g/L) (Wetting time, skein test) | Solubility at 25° C. [2] | SMILES | Calcium tolerance (ppm surfactant remaining) [3] |
| --- | --- | --- | --- | --- | --- |
| 0.00129 g/g | 6.1 s | 2.3 s |  | CCCC(C)CCCC(C)CCCOS(=O)(=O)O (centres unmarked) [Isotridecyl Sulfate-2, C# = 13, 4,8-dimethylundecan-1-sulfate] |  |
| 0.001 g/g | 6.3 s | 3.1 s | <0.5% Wt. % | CCCCCCCCCCCCCOS(=O)(=O)[O-].[Na+] [Sodium n-Tridecyl Sulfate] | 11.2 ppm |
